Counter-ions that a name gives are not always drawn.
Biological target: MAGL (Homo sapiens (Human), UniProt Q99685)
Assay: 2-AG assay (MAGL inhibitory activity, hydrolysis of 2-arachidonoylglycerol followed by mass spectrometry)
Assay type: biochemical
Conditions: 50 pM MAGL protein, 15 min pre-incubation, 30 min incubation at RT
Description: Compounds of formula (II) were profiled for MAGL inhibitory activity by determining the enzymatic activity by following the hydrolysis of the natural substrate 2-arachidonoylglycerol (2-AG) resulting in arachidonic acid, which can be followed by mass spectrometry. This assay is hereinafter abbreviated “2-AG assay”.
Compounds of formula (II) were profiled for MAGL inhibitory activity by determining the enzymatic activity by following the hydrolysis of the natural substrate 2-arachidonoylglycerol (2-AG) resulting in arachidonic acid, which can be followed by mass spectrometry. This assay is hereinafter abbreviated “2-AG assay”. The 2-AG assay was carried out in 384 well polypropylene assay plates. Compound dilutions were made in 100% DMSO in a polypropylene plate in 3-fold dilution steps to give a final concentration range in the assay from 12.5 μM to 0.8 pM. Compound dilutions were added to MAGL protein in assay buffer (50 mM TRIS, 1 mM EDTA, 0.01% (v/v) Tween-20, 2.5% (v/v) DMSO). After shaking, the plate was incubated for 15 min at RT. To start the reaction, 2-arachidonoylglycerol in assay buffer was added. The final concentrations in the assay was 50 pM for MAGL protein and […] 2-arachidonoylglyerol. After shaking and 30 min incubation at RT, the reaction was quenched by the addition of two assay volumes of acetonitrile containing 4 μM of d8-arachidonic acid. The amount of arachidonic acid formed was traced by an online SPE system (Agilent Rapidfire) coupled to a triple quadrupole mass spectrometer. A C18 SPE cartridge (Agilent G9205A) was used in an acetonitrile/water liquid setup. The mass spectrometer was operated in negative electrospray mode following the mass transitions 303.1→259.1 for arachidonic acid and 311.1→267.0 for d8-arachidonic acid. The activity of the compounds was calculated based on the ratio of intensities [arachidonic acid/d8-arachidonic acid].

MAGL, sequence (Q99685 whole entry, species assumed): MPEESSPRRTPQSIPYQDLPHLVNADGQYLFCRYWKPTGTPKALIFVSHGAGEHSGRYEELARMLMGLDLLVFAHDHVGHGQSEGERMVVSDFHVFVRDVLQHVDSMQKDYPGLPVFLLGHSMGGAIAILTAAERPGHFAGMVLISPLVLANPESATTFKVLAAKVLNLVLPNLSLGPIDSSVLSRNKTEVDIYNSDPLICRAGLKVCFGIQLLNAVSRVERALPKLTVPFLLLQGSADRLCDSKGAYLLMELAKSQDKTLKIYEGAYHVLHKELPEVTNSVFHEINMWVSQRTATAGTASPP

Row | SMILES | IC50 [nM]
1 | CC1c2nn(C)c(-c3cc(F)cc(F)c3)c2CCN1C(=O)c1cc(F)cc(OCC2CNC(=O)C2)c1Cl (racemic) [Example 40, 4-[[2-Chloro-3-[3-(3,5-difluorophenyl)-2,7-dimethyl-5,7-dihydro-4H-pyrazolo[3,4-c]pyridine-6-carbonyl]-5-fluoro-phenoxy]methyl]pyrrolidin-2-one] | 293
2 | CC1c2nn(C)c(-c3cc(F)cc(F)c3)c2CCN1C(=O)c1cc(F)cc(OCC2CNC(=O)C2)c1Cl (single isomer, unassigned) [Example 38, 4-[[2-Chloro-3-[3-(3,5-difluorophenyl)-2,7-dimethyl-5,7-dihydro-4H-pyrazolo[3,4-c]pyridine-6-carbonyl]-5-fluoro-phenoxy]methyl]pyrrolidin-2-one] | 0.5
3 | CC1c2nn(C)c(-c3cc(F)cc(F)c3)c2CCN1C(=O)c1cc(F)cc(OCC2CNC(=O)C2)c1Cl (single isomer, unassigned) [Example 39, 4-[[2-Chloro-3-[3-(3,5-difluorophenyl)-2,7-dimethyl-5,7-dihydro-4H-pyrazolo[3,4-c]pyridine-6-carbonyl]-5-fluoro-phenoxy]methyl]pyrrolidin-2-one] | 169
4 | C[C@@H]1c2nn(C)c(-c3cc(F)cc(F)c3)c2CCN1C(=O)c1ccc(CCC2CNC(=O)C2)cc1Cl (single isomer, unassigned) [Example 46, 4-[2-[3-Chloro-4-[3-(3,5-difluorophenyl)-2,7-dimethyl-5,7-dihydro-4H-pyrazolo[3,4-c]pyridine-6-carbonyl]phenyl]ethyl]pyrrolidin-2-one] | 258
5 | C[C@H]1c2nn(C)c(-c3cc(F)cc(F)c3)c2CCN1C(=O)c1cc(F)cc(OCC2CNC(=O)O2)c1Cl (single isomer, unassigned) [Example 49, 5-[[2-Chloro-3-[3-(3,5-difluorophenyl)-2,7-dimethyl-5,7-dihydro-4H-pyrazolo[3,4-c]pyridine-6-carbonyl]-5-fluoro-phenoxy]methyl]oxazolidin-2-one] | 1
6 | C[C@H]1c2nn(C)c(-c3cc(F)cc(F)c3)c2CCN1C(=O)c1cc(F)cc(OCC2CNC(=O)O2)c1Cl (single isomer, unassigned) [Example 50, 5-[[2-Chloro-3-[3-(3,5-difluorophenyl)-2,7-dimethyl-5,7-dihydro-4H-pyrazolo[3,4-c]pyridine-6-carbonyl]-5-fluoro-phenoxy]methyl]oxazolidin-2-one] | 5
7 | C[C@@H]1c2nn(C)c(-c3cc(F)cc(F)c3)c2CCN1C(=O)c1cc(F)cc(OCC2CNC(=O)O2)c1Cl (single isomer, unassigned) [Example 51, 5-[[2-Chloro-3-[3-(3,5-difluorophenyl)-2,7-dimethyl-5,7-dihydro-4H-pyrazolo[3,4-c]pyridine-6-carbonyl]-5-fluoro-phenoxy]methyl]oxazolidin-2-one] | 187
8 | C[C@@H]1c2nn(C)c(-c3cc(F)cc(F)c3)c2CCN1C(=O)c1cc(F)cc(OCC2CNC(=O)O2)c1Cl (single isomer, unassigned) [Example 52, 5-[[2-Chloro-3-[3-(3,5-difluorophenyl)-2,7-dimethyl-5,7-dihydro-4H-pyrazolo[3,4-c]pyridine-6-carbonyl]-5-fluoro-phenoxy]methyl]oxazolidin-2-one] | 2000
9 | C[C@H]1c2nn(C)c(-c3cc(F)cc(F)c3)c2CCN1C(=O)c1ncnn1[C@H]1CCNC1 (single isomer, unassigned) [Example 54, [3-(3,5-Difluorophenyl)-2,7-dimethyl-5,7-dihydro-4H-pyrazolo[3,4-c]pyridin-6-yl]-(2-pyrrolidin-3-yl-1,2,4-triazol-3-yl)methanone; hydrochloride] | 714
10 | C[C@H]1c2nn(C)c(-c3cc(F)cc(F)c3)c2CCN1C(=O)c1cc(Cl)cc(OC[C@@H]2CNC(=O)O2)c1Cl (single isomer, unassigned) [Example 108] | 294
11 | C[C@H]1c2nn(C)c(-c3cc(F)cc(F)c3)c2CCN1C(=O)c1cc(Cl)cc(OC[C@H]2CNC(=O)O2)c1Cl (single isomer, unassigned) [Example 109] | 371
12 | C[C@H]1c2nn(C)c(-c3cc(F)cc(F)c3)c2CCN1C(=O)c1cc(F)cc(OC[C@@H]2CNC(=O)N2)c1Cl (single isomer, unassigned) [Example 113] | 2.48
13 | C[C@H]1c2nn(C)c(-c3cc(F)cc(F)c3)c2CCN1C(=O)c1cc(F)cc(OC[C@@H]2CNC(=O)N2)c1Cl (single isomer, unassigned) [Example 114] | 929
14 | C[C@H]1c2nn(C)c(-c3cc(F)cc(F)c3)c2CCN1C(=O)c1cc(F)cc(OCC2CNC(=O)C2)c1Cl (stereo in doubt) [Example 37, 4-[[2-Chloro-3-[3-(3,5-difluorophenyl)-2,7-dimethyl-5,7-dihydro-4H-pyrazolo[3,4-c]pyridine-6-carbonyl]-5-fluoro-phenoxy]methyl]pyrrolidin-2-one] | 5
15 | C[C@H]1c2nn(C)c(-c3cc(F)cc(F)c3)c2CCN1C(=O)c1ccc(CCC2CNC(=O)C2)cc1Cl (stereo in doubt) [Example 47, 4-[2-[3-Chloro-4-[3-(3,5-difluorophenyl)-2,7-dimethyl-5,7-dihydro-4H-pyrazolo[3,4-c]pyridine-6-carbonyl]phenyl]ethyl]pyrrolidin-2-one] | 127
16 | COc1cccc(C(=O)N2CCc3c(nn(C)c3-c3cc(Cl)cc(CNS(C)(=O)=O)c3)[C@@H]2C)c1Cl [Example 1, N-[[3-Chloro-5-[(7S)-6-(2-chloro-3-methoxy-benzoyl)-2,7-dimethyl-5,7-dihydro-4H-pyrazolo[3,4-c]pyridin-3-yl]phenyl]methyl]methanesulfonamide] | 14
17 | COc1cccc(C(=O)N2CCc3c(nn(C)c3-c3cc(Cl)cc(CNS(C)(=O)=O)c3)[C@H]2C)c1Cl [Example 2, N-[[3-Chloro-5-[(7R)-6-(2-chloro-3-methoxy-benzoyl)-2,7-dimethyl-5,7-dihydro-4H-pyrazolo[3,4-c]pyridin-3-yl]phenyl]methyl]methanesulfonamide] | 1650
18 | CNS(=O)(=O)Cc1cc(Cl)cc(-c2c3c(nn2C)[C@H](C)N(C(=O)c2cccc(OC)c2Cl)CC3)c1 [Example 3, 1-[3-Chloro-5-[(7S)-6-(2-chloro-3-methoxy-benzoyl)-2,7-dimethyl-5,7-dihydro-4H-pyrazolo[3,4-c]pyridin-3-yl]phenyl]-N-methyl-methanesulfonamide] | 63
19 | COc1cccc(C(=O)N2CCc3c(nn(C)c3-c3cc(Cl)cc(S(N)(=O)=O)c3)[C@@H]2C)c1Cl [Example 4, 3-Chloro-5-[(7S)-6-(2-chloro-3-methoxy-benzoyl)-2,7-dimethyl-5,7-dihydro-4H-pyrazolo[3,4-c]pyridin-3-yl]benzenesulfonamide] | 27
20 | COc1cccc(C(=O)N2CCc3c(nn(C)c3-c3cc(Cl)cc(C4(S(C)(=O)=O)CC4)c3)[C@@H]2C)c1Cl [Example 5, (2-Chloro-3-methoxy-phenyl)-[(7S)-3-[3-chloro-5-(1-methylsulfonylcyclopropyl)phenyl]-2,7-dimethyl-5,7-dihydro-4H-pyrazolo[3,4-c]pyridin-6-yl]methanone] | 59
21 | COc1cccc(C(=O)N2CCc3c(nn(C)c3-c3cc(Cl)cc(CS(C)(=O)=O)c3)[C@@H]2C)c1Cl [Example 6, (2-Chloro-3-methoxy-phenyl)-[(7S)-3-[3-chloro-5-(methylsulfonylmethyl)phenyl]-2,7-dimethyl-5,7-dihydro-4H-pyrazolo[3,4-c]pyridin-6-yl]methanone] | 84
22 | COc1cccc(C(=O)N2CCc3c(nn(C)c3-c3cc(Cl)cc(C4(NS(C)(=O)=O)CC4)c3)[C@@H]2C)c1Cl [Example 7, N-[1-[3-Chloro-5-[(7S)-6-(2-chloro-3-methoxy-benzoyl)-2,7-dimethyl-5,7-dihydro-4H-pyrazolo[3,4-c]pyridin-3-yl]phenyl]cyclopropyl]methanesulfonamide] | 17
23 | COc1cccc(C(=O)N2CCc3c(nn(C)c3-c3cncc(C(F)(F)F)n3)[C@@H]2C)c1Cl [Example 8, (2-Chloro-3-methoxy-phenyl)-[(7S)-2,7-dimethyl-3-[6-(trifluoromethyl)pyrazin-2-yl]-5,7-dihydro-4H-pyrazolo[3,4-c]pyridin-6-yl]methanone] | 183
24 | COc1cccc(C(=O)N2CCc3c(nn(C)c3-c3cnc(C(F)(F)F)nc3)[C@@H]2C)c1Cl [Example 9, (2-Chloro-3-methoxy-phenyl)-[(7S)-2,7-dimethyl-3-[2-(trifluoromethyl)pyrimidin-5-yl]-5,7-dihydro-4H-pyrazolo[3,4-c]pyridin-6-yl]methanone] | 311
25 | COc1cccc(C(=O)N2CCc3c(nn(C)c3-c3cncc(S(C)(=O)=O)c3)[C@@H]2C)c1Cl [Example 10, (2-Chloro-3-methoxy-phenyl)-[(7S)-2,7-dimethyl-3-(5-methylsulfonyl-3-pyridyl)-5,7-dihydro-4H-pyrazolo[3,4-c]pyridin-6-yl]methanone] | 4870

Reference: US20250059185A1 (Hoffmann-La Roche Inc., priority 2021, published 2025)
